Experimental data reported in patent US9556192B2, “Functionalized 9-bromo-camptothecin derivatives” (NERVIANO MEDICAL SCIENCES S.R.L., priority 2012, dated 2017).
Structures can show the parent of a compound that is named as a salt. Where two headings read alike, the source gives them in different places.

Legend:
[1] = tested on: A2780 human ovarian cancer cells; assay: In vitro cell proliferation assay (CellTiter-Glo); type: cell-based; details: 72 h
Description: In Vitro Cell Proliferation Assay
A2780 human ovarian and MCF7 human breast cancer cells (1250 cells/well) were seeded in white 384 well-plates in complete medium (RPMI1640 or EMEM plus 10% Fetal bovine serum) and treated with compounds dissolved in 0.1% DMSO, 24 h after seeding. The cells were incubated at 37° C. and 5% CO2 and after 72 h the plates were processed using CellTiter-Glo assay (Promega) following the manufacturers instructions.
CellTiter-Glo is a homogenous method based on the quantification of the ATP present, an indicator of metabolically active cells. ATP is quantified using a system based on luciferase and D-luciferin resulting into light generation. The luminescent signal is proportional to the number of cells present in culture.
Briefly, 25 μL/well of reagent solution are added to each well and after 5 min shaking microplates are read by a luminometer. The luminescent signal is proportional to the number of cells present in culture.

[2] = Elimination of self-immolative group at pH 7.4 (HPLC/MS); type: physicochemical; details: pH 7.4 (Tris-HCl buffer), room temperature, 1 h
Description: (§1) The conjugate A1 was incubated with 0.2 units of cathepsin B in sodium acetate buffer pH 5.5 and 1 mM Cys for 2 h at 40° C. Then pH was adjusted to 7.4 by addition of Tris-HCl buffer and maintained at room temperature for 1 h.

cathepsin B = cathepsin B (Homo sapiens, UniProt P07858); assay: Release of a drug moiety from conjugate in presence of cathepsin B; type: biochemical; details: 0.2 units cathepsin B, sodium acetate buffer pH 5.5, 1 mM Cys, 2 h at 40° C.
Description: As an example, that is not intended to limit the scope of the invention, the release of a compound of formula (I) from the conjugate was performed in presence of cathepsin as reported below.
as §1

[3] = read-out: IC50 value in A2780 human ovarian cancer cells

Compound: CC[C@@]1(O)C(=O)OCc2c1cc1n(c2=O)Cc2cc3c(Br)cccc3nc2-1 [9-bromo-camptothecin]
- IC50 ([1]; read-out: A2780 (IC50 nM)): 1.62 nM

Compound: CC[C@@]1(OC(=O)CN)C(=O)OCc2c1cc1n(c2=O)Cc2cc3c(Br)cccc3nc2-1 [Comp. 1, (4S)-10-bromo-4-ethyl-3,14-dioxo-3,4,12,14-tetrahydro-1H-pyrano[3′,4′6,7]indolizino[1,2-b]quinolin-4-yl glycinate hydrochloride]
- IC50 ([1]; read-out: A2780 (IC50 nM)): 0.97 nM
- IC50 [1, 3]: < 10 nM

Compound: CC[C@@]1(OC(=O)CNC(=O)[C@H](CC(C)C)NC(=O)[C@@H](N)Cc2ccccc2)C(=O)OCc2c1cc1n(c2=O)Cc2cc3c(Br)cccc3nc2-1 [Comp. 2, (4S)-10-bromo-4-ethyl-3,14-dioxo-3,4,12,14-tetrahydro-1H-pyrano[3′,4′:6,7]indolizino[1,2-b]quinolin-4-yl L -phenylalanyl-L-leucylglycinate]
- IC50 ([1]; read-out: A2780 (IC50 nM)): 1.56 nM
- IC50 [1, 3]: < 10 nM

Compound: CC[C@@]1(OC(=O)CC2(CN)CCCCC2)C(=O)OCc2c1cc1n(c2=O)Cc2cc3c(Br)cccc3nc2-1.Cl [Comp. 11]
- Release of 9-bromo-camptothecin by elimination of the self-immolative group W [2]: elimination of the self-immolative group W

Compound: CC[C@@]1(OC(=O)CC2(CNC(=O)[C@@H](CCCNC(N)=O)NC(=O)[C@@H](NC(=O)CCCCCN3C(=O)CC(N[C@H](C=O)CS)C3=O)C(C)C)CCCCC2)C(=O)OCc2c1cc1n(c2=O)Cc2cc3c(Br)cccc3nc2-1 (stereo partly shown) [conjugate A1]
- Cleavage of the Z peptidic linker of the conjugate with release of Comp. 11 (cathepsin B): Partial disappearance
